In test [1] the target is T1, Mitogen-activated protein kinase 15 (Homo sapiens) (UniProt Q8TD08).
T1 sequence (whole entry): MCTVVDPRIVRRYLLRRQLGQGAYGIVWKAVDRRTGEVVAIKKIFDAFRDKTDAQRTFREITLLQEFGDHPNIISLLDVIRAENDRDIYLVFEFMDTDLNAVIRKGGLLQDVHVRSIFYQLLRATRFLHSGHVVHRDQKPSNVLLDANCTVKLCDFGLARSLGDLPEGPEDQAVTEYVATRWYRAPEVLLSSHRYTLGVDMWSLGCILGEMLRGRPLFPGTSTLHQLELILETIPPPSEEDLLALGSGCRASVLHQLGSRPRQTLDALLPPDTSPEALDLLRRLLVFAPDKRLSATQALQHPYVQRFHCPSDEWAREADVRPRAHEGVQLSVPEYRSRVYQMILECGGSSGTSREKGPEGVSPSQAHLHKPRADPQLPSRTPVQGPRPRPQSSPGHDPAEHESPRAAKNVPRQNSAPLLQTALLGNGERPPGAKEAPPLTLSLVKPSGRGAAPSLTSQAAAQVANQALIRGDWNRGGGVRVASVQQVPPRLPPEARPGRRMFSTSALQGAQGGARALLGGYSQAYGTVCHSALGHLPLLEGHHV
Nature of the test: Selectivity interaction (KinomeScan (DiscoverX)) EUB0001049a MAPK15. As to conditions: at 1 µM.

For test [2], the target named is Mitogen-activated protein kinase 8 (Homo sapiens, UniProt P45983). Briefly: Selectivity interaction (KinomeScan (DiscoverX)) EUB0000666a MAPK8. As to conditions: at 10 µM.
For test [3], the target named is Tyrosine-protein kinase FRK (Homo sapiens) (UniProt P42685). Nature of the test: Selectivity interaction (Kinase panel (Z-LYTE Assay)) EUB0001632a FRK. The settings on record: at 10 µM.
Test [4] concerns the target Phosphorylase b kinase gamma catalytic chain, skeletal muscle/heart isoform (Homo sapiens) (UniProt Q16816). Nature of the test: Selectivity interaction (Kinase panel (Z-LYTE Assay)) EUB0001632a PHKG1. As to conditions: at 10 µM.
For test [5], the target named is T2, STE20-related kinase adapter protein alpha (Homo sapiens) (UniProt Q7RTN6).
T2 sequence (whole entry): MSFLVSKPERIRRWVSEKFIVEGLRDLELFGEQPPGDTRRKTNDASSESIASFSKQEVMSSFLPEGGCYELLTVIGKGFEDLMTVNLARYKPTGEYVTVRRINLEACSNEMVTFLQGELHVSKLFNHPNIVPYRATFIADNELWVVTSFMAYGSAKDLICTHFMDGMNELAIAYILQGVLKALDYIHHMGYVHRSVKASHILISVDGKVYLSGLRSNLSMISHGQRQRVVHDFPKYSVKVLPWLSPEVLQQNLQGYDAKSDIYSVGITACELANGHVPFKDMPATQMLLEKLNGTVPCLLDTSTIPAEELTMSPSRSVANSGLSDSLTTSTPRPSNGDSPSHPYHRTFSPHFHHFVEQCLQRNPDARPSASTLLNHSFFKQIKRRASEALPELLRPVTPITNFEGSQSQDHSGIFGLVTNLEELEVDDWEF
Nature of the test: Selectivity interaction (ActivX KiNativ screen (kinase selectivity in THP-1 cell lysates)) EUB0000639a STRADA. As to conditions: lysate, at 5 µM. In kind it is subcellular.

The target of test [6] is T3, Cyclin-dependent kinase 11A (Homo sapiens) (UniProt Q9UQ88).
T3 sequence (whole entry): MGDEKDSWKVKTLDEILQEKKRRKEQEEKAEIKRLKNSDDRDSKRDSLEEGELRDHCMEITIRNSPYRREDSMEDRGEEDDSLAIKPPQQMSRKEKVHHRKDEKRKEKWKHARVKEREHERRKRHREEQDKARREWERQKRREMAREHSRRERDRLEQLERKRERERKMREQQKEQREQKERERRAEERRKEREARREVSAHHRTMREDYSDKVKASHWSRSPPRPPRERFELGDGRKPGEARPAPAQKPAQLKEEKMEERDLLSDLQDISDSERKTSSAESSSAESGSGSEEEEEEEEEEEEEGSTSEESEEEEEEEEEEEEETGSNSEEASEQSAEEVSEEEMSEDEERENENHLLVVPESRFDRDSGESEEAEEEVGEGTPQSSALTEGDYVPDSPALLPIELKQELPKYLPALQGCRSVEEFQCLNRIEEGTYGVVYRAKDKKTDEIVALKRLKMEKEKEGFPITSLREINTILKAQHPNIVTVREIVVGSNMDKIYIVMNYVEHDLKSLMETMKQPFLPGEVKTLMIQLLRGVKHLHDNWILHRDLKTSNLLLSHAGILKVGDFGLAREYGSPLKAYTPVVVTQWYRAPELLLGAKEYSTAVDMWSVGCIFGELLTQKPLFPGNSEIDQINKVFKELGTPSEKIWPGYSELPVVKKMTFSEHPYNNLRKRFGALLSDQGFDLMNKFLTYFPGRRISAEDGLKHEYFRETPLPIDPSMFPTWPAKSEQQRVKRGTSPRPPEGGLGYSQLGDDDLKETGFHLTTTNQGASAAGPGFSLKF
Briefly: Selectivity interaction (KinomeScan (DiscoverX)) EUB0000595a CDK11A. The settings on record: at 10 µM.

Test [7] addresses Fibroblast growth factor receptor 2 (Homo sapiens) (UniProt P21802). Nature of the test: Selectivity interaction (KinomeScan (DiscoverX)) EUB0000595a FGFR2. As to conditions: at 10 µM.
For test [8], the system named is Phosphatidylinositol 4,5-bisphosphate 3-kinase catalytic subunit alpha isoform (Homo sapiens), P42336 [I800L]. As to conditions: at 10 µM.
Test [9] deals with Protein-tyrosine kinase 2-beta (Homo sapiens) (UniProt Q14289). Briefly: Selectivity interaction (ActivX KiNativ screen (ex vivo kinase selectivity in human PBMCs)) EUB0001619a PTK2B. The settings on record: PBMC, at 1 µM. In kind it is cell-based.
In test [10] the target is T4, Serine/threonine-protein kinase Nek3 (Homo sapiens) (UniProt P51956).
T4 sequence (whole entry): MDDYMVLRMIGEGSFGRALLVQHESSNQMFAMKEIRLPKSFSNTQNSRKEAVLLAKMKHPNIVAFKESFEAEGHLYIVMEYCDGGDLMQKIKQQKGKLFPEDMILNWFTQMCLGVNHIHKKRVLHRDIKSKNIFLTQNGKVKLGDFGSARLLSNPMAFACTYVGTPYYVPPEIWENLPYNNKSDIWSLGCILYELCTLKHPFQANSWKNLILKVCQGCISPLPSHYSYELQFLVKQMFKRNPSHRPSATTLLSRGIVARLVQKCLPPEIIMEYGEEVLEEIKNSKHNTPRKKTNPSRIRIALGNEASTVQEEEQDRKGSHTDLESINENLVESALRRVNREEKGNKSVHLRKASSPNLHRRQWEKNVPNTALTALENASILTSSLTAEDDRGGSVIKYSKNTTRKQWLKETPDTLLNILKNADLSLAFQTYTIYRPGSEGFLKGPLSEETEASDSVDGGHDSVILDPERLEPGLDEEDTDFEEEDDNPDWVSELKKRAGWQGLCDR
Nature of the test: Selectivity interaction (KinomeScan (DiscoverX)) EUB0000618a NEK3. As to conditions: at 10 µM.

Test [11] has as its target Serine/threonine-protein kinase PAK 2 (Homo sapiens) (UniProt Q13177). Briefly: Selectivity interaction (KinomeScan (DiscoverX)) EUB0000618a PAK2. As to conditions: at 10 µM.

Sequence of Protein-tyrosine kinase 2-beta (Homo sapiens) (Q14289 whole entry, looked up): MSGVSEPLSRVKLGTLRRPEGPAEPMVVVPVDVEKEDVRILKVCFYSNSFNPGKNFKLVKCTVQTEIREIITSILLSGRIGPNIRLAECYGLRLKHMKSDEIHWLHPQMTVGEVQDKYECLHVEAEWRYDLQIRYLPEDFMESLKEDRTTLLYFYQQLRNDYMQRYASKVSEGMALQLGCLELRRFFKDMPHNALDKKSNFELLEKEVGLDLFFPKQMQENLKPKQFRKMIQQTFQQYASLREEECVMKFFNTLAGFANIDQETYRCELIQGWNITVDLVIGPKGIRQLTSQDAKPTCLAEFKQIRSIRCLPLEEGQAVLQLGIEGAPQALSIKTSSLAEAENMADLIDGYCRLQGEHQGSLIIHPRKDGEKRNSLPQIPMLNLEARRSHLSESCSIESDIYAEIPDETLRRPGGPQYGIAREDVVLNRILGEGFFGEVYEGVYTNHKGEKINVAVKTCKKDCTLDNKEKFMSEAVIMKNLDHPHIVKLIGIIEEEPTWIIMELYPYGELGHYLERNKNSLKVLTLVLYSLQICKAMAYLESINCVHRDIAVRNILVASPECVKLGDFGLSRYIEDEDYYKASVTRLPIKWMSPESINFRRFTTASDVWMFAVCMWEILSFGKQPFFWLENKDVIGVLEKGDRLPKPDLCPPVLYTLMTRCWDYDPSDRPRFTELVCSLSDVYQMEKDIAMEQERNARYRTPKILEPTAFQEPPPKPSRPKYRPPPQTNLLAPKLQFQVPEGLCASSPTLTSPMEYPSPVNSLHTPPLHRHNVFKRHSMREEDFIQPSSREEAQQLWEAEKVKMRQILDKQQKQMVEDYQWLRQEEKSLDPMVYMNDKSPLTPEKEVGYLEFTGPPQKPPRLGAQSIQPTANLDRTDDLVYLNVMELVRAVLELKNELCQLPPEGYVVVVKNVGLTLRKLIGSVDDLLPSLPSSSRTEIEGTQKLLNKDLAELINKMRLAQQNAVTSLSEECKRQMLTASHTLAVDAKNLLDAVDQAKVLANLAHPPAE
Sequence of Tyrosine-protein kinase FRK (Homo sapiens) (P42685 whole entry, canonical isoform): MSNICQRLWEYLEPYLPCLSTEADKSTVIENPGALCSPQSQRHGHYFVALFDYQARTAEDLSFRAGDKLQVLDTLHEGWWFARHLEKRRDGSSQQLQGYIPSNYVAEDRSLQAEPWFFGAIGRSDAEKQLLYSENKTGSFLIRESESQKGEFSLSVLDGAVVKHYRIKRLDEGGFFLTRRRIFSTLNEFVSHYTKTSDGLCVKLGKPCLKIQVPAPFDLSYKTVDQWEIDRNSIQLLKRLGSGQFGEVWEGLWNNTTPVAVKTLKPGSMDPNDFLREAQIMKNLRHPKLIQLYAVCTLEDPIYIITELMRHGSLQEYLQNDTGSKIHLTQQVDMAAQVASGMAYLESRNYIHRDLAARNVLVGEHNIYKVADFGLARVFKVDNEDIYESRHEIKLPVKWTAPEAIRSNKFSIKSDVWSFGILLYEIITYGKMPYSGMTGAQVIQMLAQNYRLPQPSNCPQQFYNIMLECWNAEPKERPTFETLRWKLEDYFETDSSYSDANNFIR
Sequence of Phosphorylase b kinase gamma catalytic chain, skeletal muscle/heart isoform (Homo sapiens) (Q16816 whole entry, looked up, canonical isoform): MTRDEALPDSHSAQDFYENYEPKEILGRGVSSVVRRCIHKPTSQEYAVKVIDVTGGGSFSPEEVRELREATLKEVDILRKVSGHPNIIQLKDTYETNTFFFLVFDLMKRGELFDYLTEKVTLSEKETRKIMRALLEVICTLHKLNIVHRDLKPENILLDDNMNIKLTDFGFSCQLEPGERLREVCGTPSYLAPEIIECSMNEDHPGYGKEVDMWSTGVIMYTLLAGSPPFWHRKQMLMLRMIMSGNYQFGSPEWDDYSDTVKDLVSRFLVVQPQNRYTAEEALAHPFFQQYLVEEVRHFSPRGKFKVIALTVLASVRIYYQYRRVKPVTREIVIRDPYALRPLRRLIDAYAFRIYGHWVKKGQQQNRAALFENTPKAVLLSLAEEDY
Sequence of Mitogen-activated protein kinase 8 (P45983 whole entry): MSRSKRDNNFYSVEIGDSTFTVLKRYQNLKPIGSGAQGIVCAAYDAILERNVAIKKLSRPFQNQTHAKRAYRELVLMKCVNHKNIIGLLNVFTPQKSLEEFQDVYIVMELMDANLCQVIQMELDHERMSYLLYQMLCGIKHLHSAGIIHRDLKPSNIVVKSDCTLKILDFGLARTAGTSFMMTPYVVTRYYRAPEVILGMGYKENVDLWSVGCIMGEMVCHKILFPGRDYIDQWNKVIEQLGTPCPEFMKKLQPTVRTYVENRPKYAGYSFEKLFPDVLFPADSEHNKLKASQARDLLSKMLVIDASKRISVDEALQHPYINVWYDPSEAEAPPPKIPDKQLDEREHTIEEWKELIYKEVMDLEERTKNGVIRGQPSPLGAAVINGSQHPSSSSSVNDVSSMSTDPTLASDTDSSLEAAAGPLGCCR
Sequence of Serine/threonine-protein kinase PAK 2 (Homo sapiens) (Q13177 whole entry): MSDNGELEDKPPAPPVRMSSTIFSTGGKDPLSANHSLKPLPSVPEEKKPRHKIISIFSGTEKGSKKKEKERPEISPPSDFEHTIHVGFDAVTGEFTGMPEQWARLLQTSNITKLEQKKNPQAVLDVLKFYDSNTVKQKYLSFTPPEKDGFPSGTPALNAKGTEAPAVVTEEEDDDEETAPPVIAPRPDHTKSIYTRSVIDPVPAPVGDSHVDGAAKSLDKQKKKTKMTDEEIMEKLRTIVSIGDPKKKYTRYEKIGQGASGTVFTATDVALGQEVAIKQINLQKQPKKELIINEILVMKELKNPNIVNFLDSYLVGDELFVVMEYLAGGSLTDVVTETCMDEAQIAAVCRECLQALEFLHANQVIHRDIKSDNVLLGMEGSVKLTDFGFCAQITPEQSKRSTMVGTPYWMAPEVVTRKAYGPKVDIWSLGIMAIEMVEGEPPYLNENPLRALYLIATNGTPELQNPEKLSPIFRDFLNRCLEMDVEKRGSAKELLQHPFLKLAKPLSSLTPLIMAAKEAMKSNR
Sequence of Fibroblast growth factor receptor 2 (Homo sapiens) (P21802 22-821 limits assumed): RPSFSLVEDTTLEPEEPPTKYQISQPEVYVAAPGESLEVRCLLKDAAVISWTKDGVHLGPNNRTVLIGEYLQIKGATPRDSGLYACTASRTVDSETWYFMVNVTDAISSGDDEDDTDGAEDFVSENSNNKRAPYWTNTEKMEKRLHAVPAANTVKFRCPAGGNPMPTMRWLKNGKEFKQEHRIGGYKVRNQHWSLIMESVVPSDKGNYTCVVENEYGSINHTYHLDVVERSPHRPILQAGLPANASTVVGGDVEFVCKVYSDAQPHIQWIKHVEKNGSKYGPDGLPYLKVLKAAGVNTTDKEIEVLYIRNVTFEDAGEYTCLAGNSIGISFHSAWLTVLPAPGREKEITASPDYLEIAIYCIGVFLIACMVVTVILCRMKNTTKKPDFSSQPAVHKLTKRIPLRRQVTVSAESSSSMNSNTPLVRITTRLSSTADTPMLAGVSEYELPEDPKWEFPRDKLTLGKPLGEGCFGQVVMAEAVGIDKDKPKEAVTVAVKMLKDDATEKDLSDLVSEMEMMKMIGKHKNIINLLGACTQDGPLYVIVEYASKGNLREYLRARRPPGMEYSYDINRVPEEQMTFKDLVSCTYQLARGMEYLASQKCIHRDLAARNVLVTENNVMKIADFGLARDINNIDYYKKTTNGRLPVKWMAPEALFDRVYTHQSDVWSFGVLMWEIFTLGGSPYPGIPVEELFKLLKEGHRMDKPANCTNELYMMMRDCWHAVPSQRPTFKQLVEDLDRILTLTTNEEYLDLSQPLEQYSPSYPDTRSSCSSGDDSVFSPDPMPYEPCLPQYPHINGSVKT
Sequence of Phosphatidylinositol 4,5-bisphosphate 3-kinase catalytic subunit alpha isoform (Homo sapiens), P42336 [I800L] (P42336 whole entry I800L, canonical isoform): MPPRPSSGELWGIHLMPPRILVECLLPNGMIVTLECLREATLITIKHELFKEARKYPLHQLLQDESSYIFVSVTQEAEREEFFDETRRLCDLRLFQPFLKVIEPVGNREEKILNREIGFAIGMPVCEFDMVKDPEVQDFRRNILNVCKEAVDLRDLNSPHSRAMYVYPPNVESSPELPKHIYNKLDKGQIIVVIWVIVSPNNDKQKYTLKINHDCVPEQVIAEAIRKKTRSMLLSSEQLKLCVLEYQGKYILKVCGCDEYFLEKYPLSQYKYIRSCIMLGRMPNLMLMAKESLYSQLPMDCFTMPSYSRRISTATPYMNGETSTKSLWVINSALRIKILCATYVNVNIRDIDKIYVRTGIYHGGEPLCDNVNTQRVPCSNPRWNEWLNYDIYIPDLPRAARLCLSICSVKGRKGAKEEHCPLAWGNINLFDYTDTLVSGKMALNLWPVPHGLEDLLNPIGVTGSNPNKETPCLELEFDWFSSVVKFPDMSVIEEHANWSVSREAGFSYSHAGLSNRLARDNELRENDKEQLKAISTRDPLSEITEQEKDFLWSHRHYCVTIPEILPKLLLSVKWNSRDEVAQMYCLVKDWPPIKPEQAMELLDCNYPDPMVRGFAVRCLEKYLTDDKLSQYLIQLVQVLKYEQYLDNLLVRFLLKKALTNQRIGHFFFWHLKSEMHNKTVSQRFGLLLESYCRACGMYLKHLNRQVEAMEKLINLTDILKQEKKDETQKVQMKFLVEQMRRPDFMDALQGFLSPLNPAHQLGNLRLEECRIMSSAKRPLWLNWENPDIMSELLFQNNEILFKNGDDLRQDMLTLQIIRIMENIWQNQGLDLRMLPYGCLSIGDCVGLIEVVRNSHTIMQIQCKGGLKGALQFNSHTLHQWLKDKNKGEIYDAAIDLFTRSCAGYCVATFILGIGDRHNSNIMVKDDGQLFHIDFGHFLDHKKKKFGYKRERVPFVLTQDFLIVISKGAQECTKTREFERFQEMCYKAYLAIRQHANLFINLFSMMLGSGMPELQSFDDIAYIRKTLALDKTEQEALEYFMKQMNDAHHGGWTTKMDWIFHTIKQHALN

With `COc1cc(Nc2nc(C)cc(-c3cnn4nc(OC)ccc34)n2)cc(C(F)(F)F)c1`, in [1], the % of control was 96%.
As to `O=C(NOC[C@H](O)CO)c1ccc(F)c(F)c1Nc1ccc(I)cc1F`, the % of control in [2] came to 92%.
Regarding `Cn1cc(-n2cnc3c(NCc4nc5cc(Cl)c(Cl)cc5[nH]4)nc(N4CCOCC4)nc32)cn1`, the % of control was 5.87% in test [3] and -6.26% in test [4].
For the compound `CC[C@@H]1[C@H](F)C(=O)N[C@@H]1COc1nccc2cc(C(N)=O)c(OC)cc12` [ZIMLOVISERTIB], the % of inhibition in test [5] is -29.5%.
On to `COCC(=O)NC/C=C/c1ccc2ncnc(Nc3ccc(Oc4ccc(C)nc4)c(C)c3)c2c1` [CP-724714], for which the % of control in [6] came out at 0.5%; in test [7], 100%; in [8], 100%.
For `N#Cc1cccc(-c2c[nH]c3ncnc(N4CCOCC4)c23)c1`, in test [9], the % of inhibition was determined as 3%.
Regarding `O[C@H]1CC[C@H](Nc2ncc3nc(Nc4c(F)cc(F)cc4F)n([C@H]4CCOC4)c3n2)CC1`, the % of control in test [10] and in [11] was 100% throughout.
